Results taken from patent US7371734B2, “Oligonucleotide compositions and their use for the modulation of immune responses” (Bioniche Life Sciences Inc., priority 2002, dated 2008).
Marks after values point to notes of the source that are not given here.

Columns and labels:
Format in all cases: cell-based
[1] = test system: Human dendritic cells; assay: CD40 levels at the DC cell surface (flow cytometry); conditions: 100 μg, 48 hours
Procedure: (§1) Human dendritic cells were obtained from Clonetics (San Diego, Calif., USA) and were cultured in the medium recommended by Clonetics. DC were obtained from three different individuals (see Table 1). Major histocompatability typing was performed on each of these individuals and several of the HLA (human leukocyte antigens) types are shown.
DC from individuals B and C were seeded in 1.0 ml at 1.0×10^5 cells/ml in 6-well flat-bottomed tissue culture plates for 48 hours with 100 μg of 6 base N1A, N1B, N2A, N2B, N3A, N3B, N4A, N4B, N5A, N5B, N6A, N6B, N7A or N7B polynucleotides. The level of CD40 at the cell surface was determined after 48 hours of incubation by flow cytometry (FACSCalibur system) using a FITC-conjugated monoclonal antibody directed to CD40 and analyzed by CELLQuest Pro (all from Becton Dickinson). Results are expressed as the percentage of CD40^hi DC following treatment. The term “CD40^hi” refers to a population of cells identified by flow cytometry as having higher than baseline expression of CD40.

[2] = test system: Human dendritic cells; assay: Induction of IFN-gamma production by DC (ELISA); conditions: 100 μg, 48 hours
Procedure: as §1
DC were seeded in 1.0 ml at 1.0×10^5 cells/ml in 6-well flat-bottomed tissue culture plates for 48 hours with 100 μg of6 base N1A, N1B, N2A, N2B, N3A, N3B, N4A, N4B, N5A, N5B, N6A, N6B, N7A or N7B polynucleotides. Production of IFN-gamma was determined in 100 μl of culture supernatant using a commercial ELISA (BioSource) after 48 hours of incubation. Results are expressed as the “fold” (x) increase in IFN-gamma production by treated DC compared to control cells.

[3] = test system: Human dendritic cells; assay: Induction of IL-1beta production by DC (ELISA); conditions: 100 μg, 48 hours
Procedure: as §1
DC were seeded in 1.0 ml at 1.0×10^5 cells/ml in 6-well flat-bottomed tissue culture plates for 48 hours with 100 μg of 6 base N1A, N1B, N2A, N2B, N3A, N3B, N4A, N4B, N5A, N5B, N6A, N6B, N7A or N7B polynucleotides. Production of IL-1beta was determined in 100 μl of culture supernatant using a commercial ELISA (BioSource, Camarillo, Calif., USA) after 48 hours of incubation. Results are expressed as the “fold” (x) increase in IL-1beta production by treated DC compared to control cells.

[4] = test system: Human dendritic cells; assay: CD80 levels at the DC cell surface (flow cytometry); conditions: 100 μg, 48 hours
Procedure: as §1
DC from individuals B and C were seeded in 1.0 ml at 1.0×10^5 cells/ml in 6-well flat-bottomed tissue culture plates for 48 hours with 100 μg of 6 base N1A, N1B, N2A, N2B, N3A, N3B, N4A, N4B, N5A, N5B, N6A, N6B, N7A or N7B polynucleotides. The level of CD80 at the cell surface was determined after 48 hours of incubation by flow cytometry using a FITC-conjugated monoclonal antibody directed to CD80 (Serotec, Oxford, U.K.) and analyzed by CELLQuest. Results are expressed as the percentage of CD80^hi DC following treatment.

[5] = test system: Human dendritic cells; assay: Endocytosis of FITC-dextran by DC; conditions: DC from individual B, 100 μg, 24 hours, untreated control = 100
Procedure: as §1
DC from individual B were seeded in 1.0 ml at 1.0×10^5 cells/ml in 6-well flat-bottomed tissue culture plates for 24 hours with 1 mg/ml of FITC-dextran (20 kDa; Sigma-Aldrich) in the absence or presence of 100 μg of 6 base N2A, N2B, N3A, N3B, N5A, N5B, and N6B polynucleotides at 4° C. (control cell surface binding of FITC-dextran) and 37° C. (to assess endocytosis). Cells were washed three times with ice-cold phosphate buffered saline and analyzed by flow cytometry using CELLQuest Pro. Results are expressed as relative endocytic rate (normalized Δ Mean Fluorescence Value (Δ MFV)). Δ MFV=MFV of DC exposed to FITC-dextran at 37° C.−MFV of DC exposed to FITC-dextran at 4° C. Δ MFV=(ΔMFVsequence/ΔMFVcontrol)×100.

[6] = test system: Human dendritic cells; assay: MHC-II levels at the DC cell surface (flow cytometry); conditions: DC from individual B; 100 μg, 48 hours
Procedure: as §1
DC from individual B were seeded in 1.0 ml at 1.0×10^5 cells/ml in 6-well flat-bottomed tissue culture plates for 48 hours with 100 μg of 6 base N1A, N1B, N2A, N2B, N3A, N3B, N5A, N5B, N6A, N6B, N7A or N7B polynucleotides. The level of MHC II at the cell surface was determined after 48 hours of incubation by flow cytometry using a FITC-conjugated monoclonal antibody directed to MHC II (Serotec) and analyzed by CELLQuest Pro. Results are expressed as the percentage of MHC II^hi DC following treatment.

[7] = test system: Human dendritic cells; assay: CD86 levels at the DC cell surface (flow cytometry); conditions: 100 μg, 48 hours
Procedure: as §1
DC from individuals B and C were seeded in 1.0 ml at 1.0×10^5 cells/ml in 6-well flat-bottomed tissue culture plates for 48 hours with 100 μg of 6 base N1A, N1B, N2A, N2B, N3A, N3B, N4A, N4B, N5A, N5B, N6A, N6B, N7A or N7B polynucleotides. The level of CD86 at the cell surface was determined after 48 hours of incubation by flow cytometry using a PE-conjugated monoclonal antibody directed to CD86 (Serotec) and analyzed by CELLQuest Pro. Results are expressed as the percentage of CD86^hi DC following treatment.

[8] = test system: Human dendritic cells; assay: Increase in cell size and granularity of DC (flow cytometry); conditions: 100 μg polynucleotide, 48 hours
Procedure: as §1
DC were seeded in 1.0 ml at 1.0×10^5 cells/ml in 6-well flat-bottomed tissue culture plates for 48 hours with 100 μg of 6 base N1A, N1B, N2A, N2B, N3A, N3B, N4A, N4B, N5A, N5B, N6A, N6B, N7A or N7B polynucleotides. Cell size (FCS: forward side scatter) and granularity (S SC: side light scatter) were determined by flow cytometry using a FACSCalibur and analyzed using the CELLQuest Pro software (both from Becton-Dickinson, San Diego, Calif., USA). Percentage of DC showing a FCS>500 units and a SSC>400 units have been determined after treatment with 3-OH, 5-OH polynucleotides for DC isolated from three different individuals.

[9] = test system: Human dendritic cells; assay: Induction of IL-12 production by DC (ELISA); conditions: 100 μg, 48 hours
Procedure: as §1
DC were seeded in 1.0 ml at 1.0×10^5 cells/ml in 6-well flat-bottomed tissue culture plates for 48 hours with 100 μg of 6 base N1A, N1B, N2A, N2B, N3A, N3B, N4A, N4B, N5A, N5B, N6A, N6B, N7A or N7B polynucleotides. Production of IL-12 was determined in 100 μl of culture supernatant using a commercial ELISA (BioSource) after 48 hours of incubation. Results are expressed as the “fold” (x) increase in IL-12 production by treated DC compared to control cells.

Substance	The percentage of CD40^hi DC following treatment ([1]; DC from individual B)	The percentage of CD40^hi DC following treatment ([1]; DC from individual C)	IFN-gamma production by DC (fold increase compared to untreated DC) ([2]; DC isolated from individual A) [fold]	IFN-gamma production by DC (fold increase compared to untreated DC) ([2]; DC isolated from individual B) [fold]	IFN-gamma production by DC (fold increase compared to untreated DC) ([2]; DC isolated from individual C) [fold]	IL-1beta production by DC (fold increase compared to untreated DC) ([3]; DC isolated from individual A) [fold]	IL-1beta production by DC (fold increase compared to untreated DC) ([3]; DC isolated from individual B) [fold]	IL-1beta production by DC (fold increase compared to untreated DC) ([3]; DC isolated from individual C) [fold]	The percentage of CD80^hi DC following treatment ([4]; DC from individual B)	The percentage of CD80^hi DC following treatment ([4]; DC from individual C) [%]	Relative endocytic rate (normalized Δ MFV) [5]	The percentage of MHC-II^hi DC following treatment [6]	The percentage of CD86^hi DC following treatment ([7]; DC from individual B)	The percentage of CD86^hi DC following treatment ([7]; DC from individual C)	Percentage of DC showing a FCS > 500 units and a SSC > 400 units ([8]; DC isolated from individual A) [%]	Percentage of DC showing a FCS > 500 units and a SSC > 400 units ([8]; DC isolated from individual B) [%]	Percentage of DC showing a FCS > 500 units and a SSC > 400 units ([8]; DC isolated from individual C) [%]	IL-12 production by DC (fold increase compared to untreated DC) ([9]; DC isolated from individual A) [fold]	IL-12 production by DC (fold increase compared to untreated DC) ([9]; DC isolated from individual B) [fold]	IL-12 production by DC (fold increase compared to untreated DC) ([9]; DC isolated from individual C) [fold]
5′GGTGGG3′ [N2A]	27** %	17%	1.0	1.1	1.0	1.0	1.0	1.0	25** %	18	334	42** %	16%	26%	6	14	21	7.9	6.8	1.6
5′GGTGGG3′ [N2B]	22%	37** %	1.2	1.2	1.0	1.2	1.4	1.0	7%	8	148	30%	31** %	53** %	42	38	50	1.3	6.0	2.5
5′GGGGGG3′ [N5B]	21%	15%	3.5	5.0	1.5	5.0	7.5	3.7	3%	10	151	18%	26** %	31** %	53	16	23	7.5	17.8	15.0
